Results reported in BindingDB's records for doi:10.1016/S0893-133X(01)00298-6 (Eli Lilly, 2001).
Where “and” joins values, the source holds several entries; their conditions need not be identical. Equal values may be shown once.

How the values were obtained:
[1] = target: Delta-type opioid receptor (Rattus norvegicus, UniProt P33533)
Mu-type opioid receptor = Mu-type opioid receptor (Rattus norvegicus, UniProt P33535)
[2] = target: Muscarinic acetylcholine receptor M2 (Homo sapiens, UniProt P08172)
D(1A) dopamine receptor = D(1A) dopamine receptor (Rattus norvegicus, UniProt P18901)
Adenosine receptor A1 = Adenosine receptor A1 (Rattus norvegicus, UniProt P25099)
[3] = target: Amine oxidase [flavin-containing] A (Rattus norvegicus, UniProt P21396)
Alpha-bungarotoxin = Alpha-bungarotoxin (Bungarus multicinctus, UniProt P60615)
[4] = target: Glycine receptor subunit alpha-1 (Rattus norvegicus, UniProt P07727)
[5] = target: Alpha-1B adrenergic receptor (Rattus norvegicus, UniProt P15823)
[6] = target: Alpha-2A adrenergic receptor (Homo sapiens, UniProt P08913)
[7] = target: Amine oxidase [flavin-containing] B (Rattus norvegicus, UniProt P19643)
Adenosine receptor A2b = Adenosine receptor A2b (Bos taurus, UniProt Q1LZD0)
[8] = target: 5-hydroxytryptamine receptor 6 (Homo sapiens, UniProt P50406)
[9] = target: Alpha-1A adrenergic receptor (Homo sapiens, UniProt P35348)
[10] = target: Calcium-activated potassium channel subunit beta-1 (Rattus norvegicus, UniProt P97678)
[11] = target: Gastrin/cholecystokinin type B receptor (Mus musculus, UniProt P56481)
[12] = target: 5-hydroxytryptamine receptor 1A (Homo sapiens, UniProt P08908)
[13] = target: Phosphatidylinositol 3,4,5-trisphosphate 5-phosphatase 2 (Rattus norvegicus, UniProt Q9WVR3)
[14] = target: 5-hydroxytryptamine receptor 1D (Homo sapiens, UniProt P28221)
Substance-K receptor = Substance-K receptor (Rattus norvegicus, UniProt P16610)
[15] = target: Gamma-aminobutyric acid receptor subunit alpha-1 (Rattus norvegicus, UniProt P62813)
[16] = target: Sigma non-opioid intracellular receptor 1 (Cavia porcellus, UniProt Q60492)
[17] = target: Nitric oxide synthase, brain (Rattus norvegicus, UniProt P29476)
[18] = target: Sodium channel protein type 1 subunit alpha (Rattus norvegicus, UniProt P04774)
Glutamate receptor 3 = Glutamate receptor 3 (Rattus norvegicus, UniProt P19492)
[19] = target: Glutamate receptor ionotropic, kainate 1 (Rattus norvegicus, UniProt P22756)
[20] = target: Gamma-aminobutyric acid receptor subunit alpha-1 (Bos taurus, UniProt P08219)
D(2) dopamine receptor = D(2) dopamine receptor (Homo sapiens, UniProt P14416)
[21] = target: Sodium channel protein type 2 subunit alpha (Rattus norvegicus, UniProt P04775)
[22] = target: ATP-sensitive inward rectifier potassium channel 1 (Rattus norvegicus, UniProt P35560)
[23] = target: Kappa-type opioid receptor (Cavia porcellus, UniProt P41144)

Muscarinic acetylcholine receptor M2, sequence (P08172 whole entry): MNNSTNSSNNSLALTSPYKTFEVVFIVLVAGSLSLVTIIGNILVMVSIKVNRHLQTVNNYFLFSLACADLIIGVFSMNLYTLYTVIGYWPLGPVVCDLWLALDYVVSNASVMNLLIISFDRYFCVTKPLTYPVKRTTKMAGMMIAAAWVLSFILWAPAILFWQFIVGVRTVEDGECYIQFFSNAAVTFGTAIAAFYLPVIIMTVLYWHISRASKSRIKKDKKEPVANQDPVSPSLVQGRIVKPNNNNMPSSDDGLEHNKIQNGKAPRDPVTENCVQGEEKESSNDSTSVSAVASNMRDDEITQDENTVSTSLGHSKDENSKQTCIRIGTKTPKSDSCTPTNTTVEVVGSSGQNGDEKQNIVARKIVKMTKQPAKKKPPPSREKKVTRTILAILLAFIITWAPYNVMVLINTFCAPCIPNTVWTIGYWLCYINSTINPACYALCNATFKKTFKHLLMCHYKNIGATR
Sigma non-opioid intracellular receptor 1, sequence (Q60492 whole entry): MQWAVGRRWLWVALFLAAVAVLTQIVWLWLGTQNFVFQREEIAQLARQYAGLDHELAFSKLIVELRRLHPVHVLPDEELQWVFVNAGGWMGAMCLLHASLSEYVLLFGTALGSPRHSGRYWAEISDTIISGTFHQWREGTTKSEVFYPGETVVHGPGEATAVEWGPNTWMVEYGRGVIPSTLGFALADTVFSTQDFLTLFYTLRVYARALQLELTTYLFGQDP
Alpha-2A adrenergic receptor, sequence (P08913 whole entry): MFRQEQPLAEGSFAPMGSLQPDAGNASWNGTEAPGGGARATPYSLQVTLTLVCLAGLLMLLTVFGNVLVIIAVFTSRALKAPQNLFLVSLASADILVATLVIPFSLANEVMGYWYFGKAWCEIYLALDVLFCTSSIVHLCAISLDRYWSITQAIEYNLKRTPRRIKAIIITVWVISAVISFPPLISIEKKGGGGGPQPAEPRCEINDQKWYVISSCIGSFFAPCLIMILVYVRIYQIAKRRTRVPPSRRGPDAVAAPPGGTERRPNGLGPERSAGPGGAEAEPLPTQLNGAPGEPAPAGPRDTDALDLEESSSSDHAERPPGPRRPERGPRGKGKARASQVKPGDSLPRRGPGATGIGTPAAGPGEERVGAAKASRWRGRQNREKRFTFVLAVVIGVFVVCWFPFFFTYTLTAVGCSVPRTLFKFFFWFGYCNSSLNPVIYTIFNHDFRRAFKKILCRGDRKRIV
Glutamate receptor ionotropic, kainate 1, sequence (P22756 whole entry): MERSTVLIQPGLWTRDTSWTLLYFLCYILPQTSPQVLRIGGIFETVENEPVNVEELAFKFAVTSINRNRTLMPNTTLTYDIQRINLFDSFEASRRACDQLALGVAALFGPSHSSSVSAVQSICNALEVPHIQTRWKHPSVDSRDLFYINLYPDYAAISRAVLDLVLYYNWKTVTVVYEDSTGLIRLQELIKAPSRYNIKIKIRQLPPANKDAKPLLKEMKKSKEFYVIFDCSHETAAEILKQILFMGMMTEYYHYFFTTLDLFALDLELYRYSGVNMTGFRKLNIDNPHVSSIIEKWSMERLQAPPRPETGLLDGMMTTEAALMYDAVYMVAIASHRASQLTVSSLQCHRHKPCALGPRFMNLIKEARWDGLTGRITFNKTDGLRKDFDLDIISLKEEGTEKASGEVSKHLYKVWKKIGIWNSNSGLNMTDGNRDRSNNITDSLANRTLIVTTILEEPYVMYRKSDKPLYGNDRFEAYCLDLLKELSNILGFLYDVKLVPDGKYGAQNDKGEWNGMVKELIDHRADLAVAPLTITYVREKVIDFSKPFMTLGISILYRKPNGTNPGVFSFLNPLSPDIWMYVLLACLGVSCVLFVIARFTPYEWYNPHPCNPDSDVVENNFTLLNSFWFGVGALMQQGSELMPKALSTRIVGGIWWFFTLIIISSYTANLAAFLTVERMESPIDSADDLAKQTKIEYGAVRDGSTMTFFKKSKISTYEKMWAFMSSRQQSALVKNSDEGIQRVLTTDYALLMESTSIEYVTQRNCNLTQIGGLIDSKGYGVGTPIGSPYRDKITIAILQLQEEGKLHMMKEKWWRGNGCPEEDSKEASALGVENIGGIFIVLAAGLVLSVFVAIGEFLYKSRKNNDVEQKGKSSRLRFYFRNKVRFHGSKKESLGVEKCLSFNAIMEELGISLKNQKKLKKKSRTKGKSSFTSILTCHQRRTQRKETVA
Amine oxidase [flavin-containing] B, sequence (P19643 whole entry): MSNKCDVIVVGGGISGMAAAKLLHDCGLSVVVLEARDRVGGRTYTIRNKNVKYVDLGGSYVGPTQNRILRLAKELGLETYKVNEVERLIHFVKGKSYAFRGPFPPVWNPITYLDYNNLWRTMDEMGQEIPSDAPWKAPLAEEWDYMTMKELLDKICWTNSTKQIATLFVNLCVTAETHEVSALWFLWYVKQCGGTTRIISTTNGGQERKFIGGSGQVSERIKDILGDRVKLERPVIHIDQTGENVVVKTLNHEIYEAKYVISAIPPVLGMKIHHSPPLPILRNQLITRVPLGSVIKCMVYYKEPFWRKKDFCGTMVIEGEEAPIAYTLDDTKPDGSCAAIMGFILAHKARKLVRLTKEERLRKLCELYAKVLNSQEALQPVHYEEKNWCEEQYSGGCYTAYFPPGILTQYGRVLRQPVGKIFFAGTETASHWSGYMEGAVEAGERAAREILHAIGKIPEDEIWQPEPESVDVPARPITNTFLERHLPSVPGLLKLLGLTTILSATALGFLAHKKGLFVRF
Amine oxidase [flavin-containing] A, sequence (P21396 whole entry): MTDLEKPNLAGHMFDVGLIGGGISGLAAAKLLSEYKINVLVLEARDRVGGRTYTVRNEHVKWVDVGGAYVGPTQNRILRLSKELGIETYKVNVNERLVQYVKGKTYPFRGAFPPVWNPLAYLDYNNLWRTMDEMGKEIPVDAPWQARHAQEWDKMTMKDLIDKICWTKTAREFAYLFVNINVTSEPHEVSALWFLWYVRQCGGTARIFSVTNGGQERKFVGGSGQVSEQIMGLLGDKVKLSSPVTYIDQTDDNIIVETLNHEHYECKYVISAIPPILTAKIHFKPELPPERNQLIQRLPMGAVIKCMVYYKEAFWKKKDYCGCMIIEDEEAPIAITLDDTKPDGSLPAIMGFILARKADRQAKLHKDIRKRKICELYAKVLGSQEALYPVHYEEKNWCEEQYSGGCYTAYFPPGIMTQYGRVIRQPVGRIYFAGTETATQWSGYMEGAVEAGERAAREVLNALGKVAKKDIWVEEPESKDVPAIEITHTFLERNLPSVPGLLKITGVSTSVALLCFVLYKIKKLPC
ATP-sensitive inward rectifier potassium channel 1, sequence (P35560 whole entry): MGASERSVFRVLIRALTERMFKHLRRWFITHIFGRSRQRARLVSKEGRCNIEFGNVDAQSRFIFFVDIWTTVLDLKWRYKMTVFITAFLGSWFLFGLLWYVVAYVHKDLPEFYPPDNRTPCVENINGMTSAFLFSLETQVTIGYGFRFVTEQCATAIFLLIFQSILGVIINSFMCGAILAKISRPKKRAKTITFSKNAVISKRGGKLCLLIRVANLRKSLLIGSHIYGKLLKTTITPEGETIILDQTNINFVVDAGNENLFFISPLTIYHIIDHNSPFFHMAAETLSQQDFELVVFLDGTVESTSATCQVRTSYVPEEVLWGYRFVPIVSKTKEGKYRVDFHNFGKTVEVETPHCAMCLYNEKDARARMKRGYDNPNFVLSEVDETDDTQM
Adenosine receptor A2b, sequence (Q1LZD0 whole entry): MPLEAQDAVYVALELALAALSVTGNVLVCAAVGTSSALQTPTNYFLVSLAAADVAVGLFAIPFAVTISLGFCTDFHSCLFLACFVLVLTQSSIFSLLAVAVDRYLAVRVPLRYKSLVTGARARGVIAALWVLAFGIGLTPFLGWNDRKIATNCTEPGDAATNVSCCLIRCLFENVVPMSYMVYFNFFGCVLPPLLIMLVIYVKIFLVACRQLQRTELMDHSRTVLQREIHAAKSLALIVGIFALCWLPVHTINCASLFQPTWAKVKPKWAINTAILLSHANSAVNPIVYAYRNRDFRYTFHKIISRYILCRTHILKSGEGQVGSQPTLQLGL
5-hydroxytryptamine receptor 6, sequence (P50406 whole entry): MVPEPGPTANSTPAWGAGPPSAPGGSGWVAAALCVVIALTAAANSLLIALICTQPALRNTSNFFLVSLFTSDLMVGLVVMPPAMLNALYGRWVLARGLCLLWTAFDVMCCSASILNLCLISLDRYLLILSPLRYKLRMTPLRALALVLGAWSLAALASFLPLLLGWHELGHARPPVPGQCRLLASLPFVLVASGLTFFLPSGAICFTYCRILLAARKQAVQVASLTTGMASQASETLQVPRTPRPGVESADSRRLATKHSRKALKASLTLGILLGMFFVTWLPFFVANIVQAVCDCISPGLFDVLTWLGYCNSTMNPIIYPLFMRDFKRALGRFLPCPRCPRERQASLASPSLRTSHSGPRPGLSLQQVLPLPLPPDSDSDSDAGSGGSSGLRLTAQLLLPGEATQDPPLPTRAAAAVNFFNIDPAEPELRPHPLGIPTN
Gamma-aminobutyric acid receptor subunit alpha-1 (Rattus norvegicus, UniProt P62813), sequence (P62813 whole entry): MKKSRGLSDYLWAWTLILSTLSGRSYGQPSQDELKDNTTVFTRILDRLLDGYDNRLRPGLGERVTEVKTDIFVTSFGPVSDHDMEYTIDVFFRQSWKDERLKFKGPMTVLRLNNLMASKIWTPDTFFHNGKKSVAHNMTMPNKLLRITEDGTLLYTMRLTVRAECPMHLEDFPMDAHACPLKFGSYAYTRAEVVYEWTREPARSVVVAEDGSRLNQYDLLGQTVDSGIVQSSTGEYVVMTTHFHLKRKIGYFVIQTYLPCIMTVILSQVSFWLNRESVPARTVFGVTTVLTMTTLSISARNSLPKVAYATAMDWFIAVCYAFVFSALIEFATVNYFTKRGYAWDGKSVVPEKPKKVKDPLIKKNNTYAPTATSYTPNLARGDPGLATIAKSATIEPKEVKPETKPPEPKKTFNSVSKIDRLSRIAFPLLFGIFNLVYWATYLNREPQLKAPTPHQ
Alpha-bungarotoxin, sequence (P60615 whole entry): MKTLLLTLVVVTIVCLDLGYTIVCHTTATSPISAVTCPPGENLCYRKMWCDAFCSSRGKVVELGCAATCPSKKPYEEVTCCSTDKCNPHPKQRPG

Row | SMILES | Ki [1] [nM] | Ki (Mu-type opioid receptor) [nM] | Ki [2] | Ki (D(1A) dopamine receptor) [nM] | Ki (Adenosine receptor A1) [nM] | Ki [3] [nM] | Ki (Alpha-bungarotoxin) [nM] | Ki [4] [nM] | Ki [5] [nM] | Ki [6] | Ki [7] [nM] | Ki (Adenosine receptor A2b) [nM] | Ki [8] [nM] | Ki [10] [nM] | Ki [11] [nM] | Ki [12] [nM] | Ki [13] [nM] | Ki [14] [nM] | Ki (Substance-K receptor) [nM] | Ki [15] [nM] | further results
1 | COc1ccc(C(CN(C)C)C2(O)CCCCC2)cc1 (stereo unspecified) [NSC_62923] | 1000 | 1000 | > 10000 nM and 1000 nM | 1000 | > 1000 | > 10000 | 1000 | 1000 | > 1000 | > 10000 nM and 1000 nM | > 10000 | 1000 | 2790 | 1000 | > 1000 | > 10000 | 1000 | > 10000 | 1000 | > 1000 | Ki [9]: > 10000 nM; Ki [16]: 1000 nM; Ki [17]: 1000 nM; Ki [18]: > 1000 nM; Ki (Glutamate receptor 3): > 1000 nM; Ki [19]: 1000 nM; Ki [20]: > 1000 nM; Ki (D(2) dopamine receptor): > 10000 nM; Ki [21]: > 1000 nM; Ki [22]: > 1000 nM; Ki [23]: 1000 nM
2 | CNCC[C@H](Oc1cccc2ccccc12)c1cccs1 [DULOXETINE] | 1000 | 1000 | 3000 nM and 1000 nM | 1000 | > 1000 | > 10000 | 1000 | 1000 | > 1000 | 8600 nM and 1000 nM | > 10000 | 1000 | 419 | 1000 | > 1000 | 5000 | 1000 | 3000 | 1000 | > 1000 | Ki [16]: 1000 nM; Ki [17]: 1000 nM; Ki [18]: > 1000 nM; Ki (Glutamate receptor 3): > 1000 nM; Ki [19]: 1000 nM; Ki [20]: > 1000 nM; Ki (D(2) dopamine receptor): > 10000 nM; Ki [21]: > 1000 nM; Ki [22]: > 1000 nM; Ki [23]: 1000 nM
